Several values for one entry are separate records, joined by “and”; a condition that tells them apart may be missing. Identical values can stand only once.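 Where inhibition never reached the appropriate level, the endpoint shown equals the highest concentration tested. Otherwise, values were interpolated linearly from a five-concentration, 48-hour dose response in 96-well plates. GI50: concentration for 50% inhibition of growth. At the TGI there is no net growth.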 *1 amine or outer side, *2 acyl side, *3 side chain or, on linkers, in order; H or OH if unused. Where a SMILES comes first, the peptide text is derived from it. [ ]: non-standard residue; d: D form. X56 = CC[C@H](C)[C@H](OC(=O)[C@@H](C)[C@@H](CC)N[*:1])C(=O)[*:2]; X32 = C[C@H](N[*:1])C(=O)C(C)(C)C(=O)[*:2]; NMeY = CN[C@@H](Cc1ccc(O)cc1)C(=O)O; NMeL = CN[C@@H](CC(C)C)C(=O)O; NMeV = CN[C@H](C(=O)O)C(C)C
Legend:
Experiment in all cases: NCI-60 cell line screen, 48 h
MOLT-4 leukemia = system: MOLT-4 leukemia
DMS 273 small cell lung = system: DMS 273 small cell lung
KM20L2 colon = system: KM20L2 colon
XF 498 CNS = system: XF 498 CNS
SK-MEL-2 melanoma = system: SK-MEL-2 melanoma
UACC-257 melanoma = system: UACC-257 melanoma
NCI-H226 lung = system: NCI-H226 lung
SNB-75 CNS = system: SNB-75 CNS
TK-10 renal = system: TK-10 renal
COLO 205 colon = system: COLO 205 colon

SMILES	TGI (MOLT-4 leukemia) [µM]	TGI (DMS 273 small cell lung) [µM]	TGI (KM20L2 colon) [µM]	TGI (XF 498 CNS) [µM]	TGI (SK-MEL-2 melanoma)	TGI (UACC-257 melanoma) [µM]	TGI (NCI-H226 lung)	TGI (SNB-75 CNS) [µM]	TGI (TK-10 renal)	TGI (COLO 205 colon) [µM]	GI50 (MOLT-4 leukemia) [µM]	GI50 (DMS 273 small cell lung) [µM]	GI50 (KM20L2 colon) [µM]	GI50 (SK-MEL-2 melanoma) [µM]	GI50 (UACC-257 melanoma) [µM]	GI50 (NCI-H226 lung) [µM]	GI50 (SNB-75 CNS) [µM]	GI50 (TK-10 renal) [µM]	GI50 (COLO 205 colon) [µM]
CS(=O)(=O)OCCN(CCOS(C)(=O)=O)c1ccc(C=O)cc1	4.84	13.5	17.8	5.85	42.8 µM	39.2	13.4 µM	13.1	17 µM	9.58									
COC(=O)C1C(OCc2ccccc2)C2CCC1(OC)C=C2C (stereo not drawn)	80.6	> 83.9	> 100	> 86.7	> 93.7 µM	> 100	> 100 µM	> 100	> 100 µM	> 100									
Cc1ccc(Oc2ccc([N+](=O)[O-])cc2[N+](=O)[O-])c(C)c1	79.4	> 100		> 100	> 100 µM	99.6	> 100 µM	> 100	> 100 µM										
O=c1c2cccnc2ncn1CCN1CCCC1	> 100	> 100	> 100	> 100	> 100 µM		> 100 µM	> 100	> 100 µM	> 100									
O=c1c2ccccc2nc(-c2cccc(Cl)c2)n1NCC1(O)OCC(O)C(O)C1O (stereo not drawn)	> 100	> 100	> 100		> 100 µM	> 100	> 100 µM			> 100									
C=C1C(=O)OC2CC(C)C3C=CC(=O)C3CC12 (stereo not drawn)	4.68	12.2	12.8	3.4	4.49 µM	4.9	8.21 µM	18.5	8.07 µM	3.34									
COc1ccc(-c2c(N)[n+]([O-])c3ccccc3[n+]2[O-])cc1OC	> 100	> 100	> 100		> 100 µM	> 100	> 100 µM	> 100		> 100									
CCC(C(=O)c1ccccc1)C(CCCC(=O)Nc1c(C)cccc1C)N=O (stereo not drawn)	> 100	> 100	> 100	> 100	> 100 µM	> 100	> 100 µM	> 100	> 100 µM	> 100									
Cc1c2c(cc3c(=O)ccn(CCN(C)C)c13)c(=O)ccn2CCN(C)C	13.6	16.3	20.8	22.9	44.4 µM	33.7	31.7 µM	25.6	51.3 µM	24.7									
COc1ccc(OC)c2c(=S)c3ccccc3[nH]c12	98.4	> 100	> 100	> 100	> 100 µM	> 100	> 21.5 µM	> 100	100 µM	> 100									
Cn1cnc([N+](=O)[O-])c1Sc1nnnn1-c1ccccc1	6.22	29		24.6	29.5 µM	27.6	36.3 µM	31	32.4 µM	20.7									
S=c1nc(N2CCCCC2)ss1	33.3	42.3	> 100	44.7	37.7 µM	49.9	> 100 µM	77	> 100 µM										
Cc1cccc(C)c1NC(=O)CCc1n[nH]c(=S)o1	> 100	> 100	> 100			> 100	> 100 µM	> 100	> 100 µM	85.1									
O=C(NCc1ccncc1)C1COc2cc(-c3cc(=O)c4ccccc4o3)ccc2O1 (stereo not drawn)	> 100		> 100	> 100	> 100 µM	> 100		> 100	> 100 µM										
NNC(=O)/C(NC(=O)c1ccccc1)=C(\N)c1ccc(Cl)cc1	> 100	> 100	> 100		> 100 µM	> 100	> 100 µM	> 100	> 100 µM	> 100									
COc1cc2c(cn1)[nH]c1ccccc12	> 100	> 100	> 100	> 100	> 100 µM	> 100	> 100 µM	> 100	> 100 µM	> 100									
C=CCn1cc(C(=O)NC(=O)NCCCCCOC(=O)CCCCCCCCCCC(=O)OCCCCCNC(=O)NC(=O)c2cn(CC=C)c(=O)n(C)c2=O)c(=O)n(C)c1=O	> 100	> 100	> 100	> 100	> 100 µM	> 100	> 100 µM	> 100	> 100 µM	> 100									
COc1cc(Nc2nc3ccc(C(F)(F)F)cc3nc2-c2ccccc2)cc(OC)c1OC	> 100	> 100	26		> 100 µM	85	65.6 µM	> 100	> 100 µM										
N#C/C(=C\c1ccc(C(O)P(=O)(O)O)cc1)C(N)=O (stereo not drawn)	> 100	> 100	> 100	> 100	> 100 µM	> 100	> 100 µM		> 100 µM	> 100									
C1COCCOCCOCCOCCO1.CC(=O)[CH-]C(C)=O.CC(=O)[CH-]C(C)=O.CC(=O)[CH-]C(C)=O.[V]	41.4	34.8	61.7		26 µM	25.3	> 100 µM	23	52 µM	35.1	20.6	15.7	27.4	10.8	12.1	37.1	10.6	14.1	18.7
CC1(O)CCC2(C#N)CCC1C2O (stereo not drawn)	> 100	> 100	> 100	> 100	> 100 µM	> 100	> 100 µM	> 100	> 100 µM	> 100									
CC[C@H](C)[C@@H]1OC(=O)[C@@H](C)[C@@H](CC)NC(=O)[C@H](C)NC(=O)C(C)(C)C(=O)[C@H](C)NC(=O)[C@H](Cc2ccc(OC)cc2)N(C)C(=O)[C@H](C(C)C)N(C)C(=O)CNC(=O)[C@H](CC(C)C)N(C)C(=O)CNC1=O (cyclo(A[X56]G[NMeL]G[NMeV][NMeY](Me)[X32]))	0.784	0.072	16.7	0.173	0.438 µM and 2.68 µM		3.75 µM and 1.06 µM		0.299 µM and 0.0735 µM	> 33.3	0.0807				0.0248	0.0731	< 0.0154	0.0196	0.034
